The compounds below were run on mutant HTT protein (mHTT) (assay: Homogeneous Time Resolved Fluorescence (HTRF) assay for HTT lowering). Conditions: reduction of mHTT in Huntington patient human cells (GENEAe020-A cell line), 48 hours incubation, mean from three replicates.
Assay type: cell-based
Protocol: Homogeneous Time Resolved Fluorescence for HTT lowering
The HTRF assay was adapted from Weiss et al. (Analytical Biochemistry Volume 395, Issue 1, 1 Dec. 2009, Pages 8-15 and Analytical Biochemistry Volume 410, 2011, Pages 304-306) to cells from GENEAe020-A cell line (https://hpscreg.eu/cell-line/GENEAe020-A).
Compounds were tested for the effect of mutant HTT levels in Huntington patient human cells (GENEAe020-A cell line) using Homogeneous Time Resolved Fluorescence (HTRF) directed towards mutant HTT protein (mHTT). The GENEAe020-A cell line was derived by Genea Biocells from human blastocysts of HD donors. After assessing viability, cells were plated into 384 well collagen coated plates in growth media. Once cells adhered, media was removed and test compounds dissolved in DMSO were diluted with buffer solution and added to the adherent cells. Controls included experiments with no cells, DMSO with no compound, and Hsp90 inhibitor control. Cells were incubated with compounds and controls for 48 hours. Then, the cells were lysed and transferred to an assay plate containing HTRF labeled monoclonal antibodies developed by Paul Patterson (Ko et al., Brain Research Bulletin, Volume 56, Numbers 3 and 4, 2001, Pages 319-329) which recognize specific areas of the HTT protein. The terbium labeled “donor” antibody (2B7) binds to the N-terminus of the HTT protein and the Alexa488 labeled “acceptor” antibody (MW1) is specific for the polyglutamine region of the protein. Binding of the acceptor labeled antibody is more efficient for the extended polyglutamine repeats of mutant HTT protein which translates into a signal boost which enables the specific measurement of mutant HTT protein level. The HTRF donor and acceptor detection reagents were incubated with the cell lysate and the ratio between the signals of the two fluorophores is indicative of the relative quantities of mHTT.

In order of falling EC50:
1. Cc1cn2nc(-c3cc(=O)n4cc(N5C[C@@H]6C[C@H]5CN6)sc4n3)cc(C)c2n1 [Example 16, 7-(2,8-dimethylimidazo[1,2-b]pyridazin-6-yl)-2-[(1S,4S)-2,5-diazabicyclo[2.2.1]heptan-2-yl]thiazolo[3,2-a]pyrimidin-5-one]  9540 nM
2. Cc1cn2nc(-c3cc(=O)n4cc(N5CCNCC5)sc4n3)cc(C3CC3)c2n1 [Example 18, 7-(8-cyclopropyl-2-methyl-imidazo[1,2-b]pyridazin-6-yl)-2-piperazin-1-yl-thiazolo[3,2-a]pyrimidin-5-one]  469 nM
3. Cc1cn2nc(-c3cc(=O)n4cc(N5CC6CNCC6C5)sc4n3)cc(C)c2n1 (stereo not shown) [Example 17, 2-(2,3,3a,4,6,6a-hexahydro-1H-pyrrolo[3,4-c]pyrrol-5-yl)-7-(2,8-dimethylimidazo[1,2-b]pyridazin-6-yl)thiazolo[3,2-a]pyrimidin-5-one]  421 nM
4. Cc1cn2nc(-c3cc(=O)n4cc(N5CC(C)NC(C)C5)sc4n3)cc(C)c2n1 (stereo not shown) [Example 8, 7-(2,8-dimethylimidazo[1,2-b]pyridazin-6-yl)-2-(3,5-dimethylpiperazin-1-yl)thiazolo[3,2-a]pyrimidin-5-one]  386 nM
5. Cc1cn2nc(-c3cc(=O)n4cc(N5CCNCC5)sc4n3)ccc2n1 [Example 10, 7-(2-methylimidazo[1,2-b]pyridazin-6-yl)-2-piperazin-1-yl-thiazolo[3,2-a]pyrimidin-5-one]  283 nM
6. Cc1cn2nc(-c3cc(=O)n4cc(N5CCN[C@@H](C)C5)sc4n3)cc(C)c2n1 [Example 6, 7-(2,8-dimethylimidazo[1,2-b]pyridazin-6-yl)-2-[(3S)-3-methylpiperazin-1-yl]thiazolo[3,2-a]pyrimidin-5-one]  268 nM
7. COc1cc(-c2cc(=O)n3cc([C@]4(F)CCNC[C@@H]4F)sc3n2)nn2cc(C)nc12 [Example 57, 7-(8-methoxy-2-methyl-imidazo[1,2-b]pyridazin-6-yl)-2-[(3S,4S)-3,4-difluoro-4-piperidyl]thiazolo[3,2-a]pyrimidin-5-one]  239 nM
8. Cc1cn2nc(-c3cc(=O)n4cc(N5CCN6CCC[C@@H]6C5)sc4n3)cc(C)c2n1 [Example 15, 7-(2,8-dimethylimidazo[1,2-b]pyridazin-6-yl)-2-[(8aR)-3,4,6,7,8,8a-hexahydro-1H-pyrrolo[1,2-a]pyrazin-2-yl]thiazolo[3,2-a]pyrimidin-5-one]  123 nM
9. Cc1cn2nc(-c3cc(=O)n4cc([C@@H]5CCNC6(CC6)C5)sc4n3)cc(C)c2n1 [Example 37, 7-(2,8-dimethylimidazo[1,2-b]pyridazin-6-yl)-2-[(7R)-4-azaspiro[2.5]octan-7-yl]thiazolo[3,2-a]pyrimidin-5-one]  112 nM
10. CCc1cc(-c2cc(=O)n3cc(N4CCNCC4)sc3n2)nn2cc(C)nc12 [Example 12, 7-(8-ethyl-2-methyl-imidazo[1,2-b]pyridazin-6-yl)-2-piperazin-1-yl-thiazolo[3,2-a]pyrimidin-5-one]  104 nM
11. COc1cc(-c2cc(=O)n3cc([C@@]4(F)CCNC[C@H]4F)sc3n2)nn2cc(C)nc12 [Example 58, 7-(8-methoxy-2-methyl-imidazo[1,2-b]pyridazin-6-yl)-2-[(3R,4R)-3,4-difluoro-4-piperidyl]thiazolo[3,2-a]pyrimidin-5-one]  99 nM
12. COc1cc(-c2cc(=O)n3cc([C@H]4CCNC[C@@H]4F)sc3n2)nn2cc(C)nc12 [Example 46, 7-(8-methoxy-2-methyl-imidazo[1,2-b]pyridazin-6-yl)-2-[(3R,4S)-3-fluoro-4-piperidyl]thiazolo[3,2-a]pyrimidin-5-one]  69 nM
13. Cc1cn2nc(-c3cc(=O)n4cc([C@H]5CCNC6(CC6)C5)sc4n3)cc(C)c2n1 [Example 36, 7-(2,8-dimethylimidazo[1,2-b]pyridazin-6-yl)-2-[(7S)-4-azaspiro[2.5]octan-7-yl]thiazolo[3,2-a]pyrimidin-5-one]  55 nM
14. Cc1cn2nc(-c3cc(=O)n4cc(C5=CCNCC5)sc4n3)cc(C)c2n1 [Example 2, 7-(2,8-dimethylimidazo[1,2-b]pyridazin-6-yl)-2-(1,2,3,6-tetrahydropyridin-4-yl)thiazolo[3,2-a]pyrimidin-5-one]  54 nM
15. Cc1cn2nc(-c3cc(=O)n4cc(N5CCN[C@H](C)C5)sc4n3)cc(C)c2n1 [Example 7, 7-(2,8-dimethylimidazo[1,2-b]pyridazin-6-yl)-2-[(3R)-3-methylpiperazin-1-yl]thiazolo[3,2-a]pyrimidin-5-one]  52 nM
16. COc1cc(-c2cc(=O)n3cc(C4CCNCC4)sc3n2)nn2cc(C)nc12 [Example 29, 7-(8-methoxy-2-methyl-imidazo[1,2-b]pyridazin-6-yl)-2-(4-piperidyl)thiazolo[3,2-a]pyrimidin-5-one]  35 nM

Source: patent publication US20240018163A1, “NEW THIAZOLOPYRIMIDINONE DERIVATIVES” (Hoffmann-La Roche Inc., priority 2021, published 2024)
